# Assay: Human HepG2 cell viability assay in 384 well format
# Assay type: toxicity, cell-based
# Design: dose 125 nL, time 70.5 hour; cytotoxicity at 70.5 h: concentration not given beside the values
# Settings: HepG2 cells, read-out: Inhibition
row,SMILES,cytotoxicity at 70.5 h
1,O=C(NCN1CCc2ccccc2C1)c1cnccn1,-8.88%
2,Cc1cccc(Sc2nccn(C)c2=O)c1,-13.8%
3,Cc1ccc(Sc2nccn(C)c2=O)cc1,-3.35%
4,Cn1ccnc(Sc2ccccc2)c1=O,-9.9%
5,CC(=O)c1ccc(CNC(=O)c2c(C)cc(C)cc2C)nc1C,3.34%
6,CC(C)N(C)CC(=O)N(C)Cc1nc(C(F)(F)F)cs1,2.33%
7,CSC1(CNC(=O)CCc2ccc(Cl)s2)CCOCC1,-5.64%
8,Cn1cc(C2NC3(CCCC3)C(=O)N2CC2CC2)c(=O)n(C)c1=O (configuration not stated),-5.99%
9,Cc1nc(C)c(CNC(=O)N2CCc3ccccc3C2CO)s1 (configuration not stated),-1.94%
10,CCC(=O)N1CCC(NC(=O)c2cccc(-n3ccnc3)c2)C1 (configuration not stated),-8.46%
11,Cc1cc(CNC(=O)N2CCc3ccccc3C2CO)c(C)o1 (configuration not stated),-5.72%
12,CC(=O)c1ccc(CNC(=O)c2cc(C)nn2C)nc1C,3.42%
13,Cc1nc(C(=O)N2CCN(C(C)c3ccccc3F)CC2)cs1 (configuration not stated),-1.44%
14,Cc1ccc(CC(=O)N2CCN(C(C)c3ccccc3F)CC2)cn1 (configuration not stated),-2.9%
15,O=C(CCc1ccsc1)Nc1cnccc1O,-6.71%
16,CC(NC(=O)Cn1cccnc1=O)c1ccc(C(F)(F)F)cc1 (configuration not stated),12%
17,NC(=O)CCCNC(=O)COc1ccccc1C(F)(F)F,-5.37%
18,CCC(C#N)NC(=O)c1ccc(Oc2cccnc2)cc1 (configuration not stated),-8.45%
19,CC1CCCCN1CCNC(=O)NCc1ccc(C#N)cc1F (configuration not stated),-6.05%
20,CC1CCN(c2nc3c(cnn3-c3ccccc3)c(=O)[nH]2)CC1,-5.83%
21,N#Cc1ccc(CNC(=O)NCCNC(=O)C2CCCC2)c(F)c1,13.4%
22,Cc1nc(C2CCCN(C(=O)CN3CCCNC3=O)C2)sc1C (configuration not stated),-8.3%
23,CNc1nc(CNC(=O)Nc2ccc(OC(C)C)cc2C)cs1,-2.53%
24,O=C(O)c1ccc(CCNC(=O)C2(c3ccccc3)CC2)cc1,12.5%
25,N#CCSCCCN1CCN(C(=O)C2CCCC2)CC1,-5.88%
26,Cc1[nH]c2ccccc2c1CCNC(=O)N1CCC2(C1)OCCO2,-17.8%

row,SMILES,cytotoxicity at 70.5 h
1,CCc1nc(C2CCCN2C(=O)CCCOc2cccc(F)c2)no1 (configuration not stated),-18.6%
2,CC(c1ccccc1F)N1CCN(C(=O)Cc2ccncc2)CC1 (configuration not stated),-11.8%
3,Cc1nc(C2CCCN2C(=O)CCCOc2ccccc2C)no1 (configuration not stated),-8.51%
4,CCC(C)(NCC(=O)N(c1ccccc1)C(C)C)c1nc(C)cs1 (configuration not stated),2.38%
5,CC(=O)N(Cc1ncc(C)o1)C1CCN(CCNC2CCCCC2)C1 (configuration not stated),9.67%
6,O=C(CCn1ccccc1=O)Nc1ccc(F)c(Cl)c1,-11.7%
7,Cn1c(Nc2cn[nH]c2)c(C#N)c(=O)n(C)c1=O,11.5%
8,CCN(CC)c1ccc(C(=O)NCc2cccnc2-n2cncn2)cn1,-10.7%
9,Cc1ccccc1OCCC(=O)OC(C)C(=O)Nc1sccc1C(N)=O (configuration not stated),-7.64%
10,COc1cccc(CNC(CN2CCN(C)CC2)c2ccccc2)c1 (configuration not stated),5.01%
11,Cc1ccc(CNC(CN2CCN(C)CC2)c2ccccc2)cc1 (configuration not stated),3.21%
12,C[S+]([O-])c1nncn1CC(=O)c1cccc(Cl)c1 (configuration not stated),-7.53%
13,C[S+]([O-])c1nncn1CC(=O)c1ccc2c(c1)CCO2 (configuration not stated),-2.98%
14,CC1CN=C(N2CCN(C(=O)Nc3nc(-c4ccccc4)ns3)CC2)S1 (configuration not stated),9.01%
15,Cc1ccc(NC(=O)NC(C)c2nc[nH]n2)cc1 (configuration not stated),-5.24%
16,CC(C)(C)N1CCCN(C(=O)c2csc(S(N)(=O)=O)c2)CC1,15.7%
17,Cc1cnc(CN2CCC(N(C)Cc3nnc(C4CC4)n3C)C2)cn1 (configuration not stated),-11%
18,CCCN1CCC(N(Cc2ncc(C)o2)C(C)=O)C1 (configuration not stated),-8%
19,CN(C)C(CNC(=O)NCCc1cccc(O)c1)c1ccco1 (configuration not stated),-5.87%
20,O=C(CCc1cc(F)ccc1F)NS(=O)(=O)c1ccc2c(c1)OCCO2,0.522%
21,O=C(CCc1c(F)cccc1F)NS(=O)(=O)c1ccc2c(c1)OCCO2,-6.92%
22,O=C(CCc1ccccc1Br)NS(=O)(=O)c1ccc2c(c1)OCCO2,-1.54%
23,Cc1cn2nc(N3CCN(Cc4c(C)noc4C)CC3)sc2n1,0.994%
24,Cc1cn2nc(N3CCN(Cc4nc(C(C)C)no4)CC3)sc2n1,19.7%
25,COc1ccccc1C(=O)N1CCN(C(=O)Cc2ccccn2)CC1,-6.85%
26,Cc1ccc(C(=O)N2CCN(C(=O)Cc3ccccn3)CC2)c(C)c1,-5.32%

row,SMILES,cytotoxicity at 70.5 h
1,Cc1ccc(-c2nc(CN3CCCC(C(=O)N(C)C)C3)cs2)o1 (configuration not stated),1.88%
2,Cc1nccn1C1CCCN(C(=O)CCNc2ncccn2)C1 (configuration not stated),-3.44%
3,CCc1nc(CN2CCCN(CC(O)c3ccccc3)CC2)no1 (configuration not stated),-8.08%
4,Cc1nn(C)c(N(C)C)c1CNCc1ccnc(N2CCCCC2)c1,-2.08%
5,CCC(O)CN1CCN(C(=O)c2ccn(C)c(=O)c2)CC1 (configuration not stated),-9.11%
6,COCc1nc(C(=O)N2CCCC2c2cc(C)on2)cs1 (configuration not stated),-9.83%
7,CCOc1cccc(C(=O)N2CCC(c3n[nH]c(C4CC4)n3)CC2)c1,-8.11%
8,CC(NC(=O)NCCCN(C)S(C)(=O)=O)c1cccnc1 (configuration not stated),-7.17%
9,COCc1nc(C(=O)N2CCCC2c2noc(C)n2)cs1 (configuration not stated),-9.63%
10,Cc1nn(C)c(N(C)C)c1CNCc1ccnc(N2CCCC2)c1,-4.33%
11,O=C(CCc1nccs1)N1CCCC(n2ccnc2)C1 (configuration not stated),-11.8%
12,CS(=O)(=O)NCCCNC(=O)NCc1ccccc1,-8.73%
13,CC(=O)Nc1nc(C(=O)NCc2ccc(N3CCOC(C)C3)nc2)cs1 (configuration not stated),-7.71%
14,CC(=O)Nc1nc(C(=O)NCc2ccnc(N3CCCC3)c2)cs1,-6.6%
15,CC(=O)Nc1nc(C(=O)NCc2ccc(N3CCCC3)nc2)cs1,-7.65%
16,CC(NC(=O)NCCCN(C(C)C)S(C)(=O)=O)c1ccncc1 (configuration not stated),-2.51%
17,Cc1cccc(C(=O)NCc2ccc(N3CCCCCC3)nc2)n1,-6.26%
18,CC(NC(=O)NCCCN(C)S(C)(=O)=O)c1ccc(Cl)cc1 (configuration not stated),-7.7%
19,Cc1ccc(CNC(=O)CCNS(C)(=O)=O)cc1,-5.54%
20,COc1ccc(CNC(=O)NCCCNS(C)(=O)=O)cc1OC,-8.21%
21,CN(C)c1ccc(C(=O)N2CCC(c3n[nH]c(C4CC4)n3)CC2)cc1,-6.1%
22,COc1cc(Cl)ccc1C(=O)NCc1nncn1C,-6.32%
23,CCc1cccc(N2CCC(NC(=O)c3ccco3)CC2)c1,-3.29%
24,O=C(c1ccc2c(c1)CCC2)N1CCC(c2n[nH]c(C3CC3)n2)CC1,-7.78%
25,CC(=O)Nc1nc(C(=O)NCc2ccc(N3CCCCC3)cc2)cs1,-3.91%
26,Cc1cc(C)n(C2CN(CC(=O)NC(C3CC3)C3CC3)C2)n1,-3.88%

row,SMILES,cytotoxicity at 70.5 h
1,Cc1cc(C)n(C2CN(CCC(=O)NC3CCCCC3)C2)n1,-4.9%
2,Cc1cc(C)n(CC2CCCN2C(=O)c2cnccn2)n1 (configuration not stated),14.8%
3,COc1ccccc1NC(=O)NCC(O)c1ccc(F)cc1F (configuration not stated),17.3%
4,CCOc1c(Br)cc(/C=C/c2ncc(C(=O)O)s2)cc1OC,-11.1%
5,Cn1cc(C(=O)NCC2CCN(C(=O)NC3CC3)CC2)cn1,-19.1%
6,Cc1cnn(C2CCCN(C(=O)c3ccc(Cn4ccnc4)cc3)C2)c1 (configuration not stated),17.4%
7,COC(=O)C(c1cc(F)ccc1F)N(C)C(=O)c1cnc(C)cn1 (configuration not stated),-9.59%
8,Cc1ccc(NC2CCN(C(=O)COc3ccccc3)CC2)nn1,-15.7%
9,Cc1ccc(NC2CCN(C(=O)COC3CCCC3)CC2)nn1,-8.07%
10,Cc1cc(NC(=O)CCN2CCCCC2Cn2cccn2)no1 (configuration not stated),-11.9%
11,COCCc1noc(CN2CCCC(Cn3cncn3)C2)n1 (configuration not stated),-7.84%
12,CCOc1ccc(C(=O)N2CCCCC2Cn2nc(C)cc2C)cn1 (configuration not stated),21%
13,Cc1nn(C)c(C)c1C1CCCN1CC(=O)NCc1ccccn1 (configuration not stated),-5.71%
14,Cc1cc(C(=O)N2CCCC(n3cncn3)C2)nn1C (configuration not stated),-10.8%
15,Cc1cc(NC(=O)CCN2CCCC2Cn2cccn2)no1 (configuration not stated),-6.26%
16,Cc1nn(C)c(Cl)c1C1CCCN1Cc1ccccn1 (configuration not stated),-7.44%
17,O=C(c1ccnc(-n2ccnc2)c1)N1CCCC(n2cccn2)C1 (configuration not stated),-2.44%
18,Cn1cc(C(=O)CC2CCCN2C(=O)c2cccc3ncccc23)cn1 (configuration not stated),14.5%
19,Cc1cc(C)n(CC2CCCN2C(=O)c2ccc3ccccc3n2)n1 (configuration not stated),-10.7%
20,COCCNC(=O)CN1CCCC1c1c(C)nn(C)c1Cl (configuration not stated),-1.71%
21,COc1ccc(C(=O)N2CCCC(n3cncn3)C2)nn1 (configuration not stated),10.5%
22,CCc1ccccc1C(=O)N1CCCC1CC(=O)c1cnn(C)c1 (configuration not stated),-13.4%
23,c1ncn(CC2CN(CCCOc3ccc4c(c3)OCO4)CCO2)n1 (configuration not stated),-4.94%
24,CCCNCc1cn(C)nc1-c1cccnc1,-7.26%

# Reference: ChEMBL document CHEMBL3507680, “University of Dundee, Gates Library screen for HepG2 cell viability”
